Measurements: patent US20260232666A1, “COMPOSITIONS AND METHODS FOR INHIBITION OF RAS” (TheRas, Inc., priority 2023, published 2026)
pIC50: −log10 of the molar value.

biological target: T1, Avi-KRAS G12C (1-169) GppNHp/RAF1 RBD-3×FLAG (52-151) (Homo sapiens, UniProt P01116, G12C); assay: Raf1 RBD-KRAS G12C-GppNHp disruption assay (protein:protein interaction HTRF); type: biochemical
T1 construct: Avi-KRAS G12C (1-169) GppNHp; Avi (N)
In short: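 HTRF measuring RAF1 RBD binding to GppNHp-loaded KRAS G12C (50 nM) in Tris pH 7.5, 100 mM NaCl, 5 mM MgCl2, 10% DMSO. Compound, KRAS, RBD and detection reagents each added sequentially with 1 h room-temperature incubations; 10-point titration; excitation 320 nm, emission 615 nm; activity as % of DMSO; IC50 derived.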

T1 sequence (P01116 1-169 isoform P01116-2 G12C limits assumed): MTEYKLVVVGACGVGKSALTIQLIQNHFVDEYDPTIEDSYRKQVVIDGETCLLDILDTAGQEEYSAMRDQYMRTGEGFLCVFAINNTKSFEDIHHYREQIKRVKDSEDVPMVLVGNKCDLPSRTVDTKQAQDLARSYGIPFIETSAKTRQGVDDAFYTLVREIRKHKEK

C=CC(=O)N1CC[C@@H](N(CC)c2nc(OC[C@]34CCCN3C[C@H](OC)C4)nc3c(F)c(-c4ccc(F)c5sc(N)c(C#N)c45)c(Cl)cc23)[C@H]1C [Compound 164] and C=CC(=O)N1CC[C@@H](N(CC)c2nc(OC[C@]34CCCN3C[C@H](F)C4)nc3c(F)c(-c4ccc(F)c5sc(N)c(C#N)c45)c(Cl)cc23)[C@H]1C [Compound 165] cannot be ordered by pIC50: over 6.30 for the first, over 6.30 for the second.

C=CC(=O)N1CC[C@@H](N(CC)c2nc(OC[C@@]34CCCN3C[C@H](OC)C4)nc3cc(-c4ccc(F)c5sc(N)c(C#N)c45)c(F)cc23)[C@H]1C [Compound 149] and C=CC(=O)N1CC[C@@H](N(C)c2nc(OC[C@@]34CCCN3C[C@H](F)C4)nc3cc(-c4ccc(F)c5sc(N)c(C#N)c45)c(F)cc23)[C@H]1CC [Compound 29] cannot be ordered by pIC50: over 6.30 for the first, over 6.30 for the second.

C=CC(=O)N1CC[C@@H](N(CC)c2nc(OC[C@@H]3C[C@@H](F)CN3C)nc3cc(-c4ccc(F)c5sc(N)c(C#N)c45)c(F)cc23)[C@H]1C [Compound 139] and C=CC(=O)N1CC[C@@H](N(CC)c2nc(OC[C@@H]3C[C@@H](F)CN3C)nc3c(F)c(-c4ccc(F)c5sc(N)c(C#N)c45)c(C(F)(F)F)cc23)[C@H]1C (atropisomer, axis not shown) [Compound 113] cannot be ordered by pIC50: over 6.30 for the first, over 6.30 for the second.

C=CC(=O)N1CCC(N(C)c2nc(OC[C@@H]3CCCN3C)nc3c(F)c(-c4nc(N)cc(C)c4C(F)(F)F)c(Cl)cc23)[C@H]1C (some centres unmarked) [Compound 9] and C=CC(=O)N1CCC(N(C)c2nc(OC[C@@]34CCCN3C[C@H](F)C4)nc3c(F)c(-c4nc(N)cc(C)c4C(F)(F)F)c(Cl)cc23)[C@H]1C (some centres unmarked) [Compound 10] cannot be ordered by pIC50: over 6.30 for the first, over 6.30 for the second.

C=CC(=O)N1CC[C@@H](N(C)c2nc(OC[C@@]34CCCN3C[C@H](F)C4)nc3cc(-c4ccc(F)c5sc(N)c(C#N)c45)c(C#N)cc23)[C@@H]1CC [Compound 24] and C=CC(=O)N1CCC(N(C)c2nc(OC[C@@]34CCCN3C[C@H](F)C4)nc3cc(-c4ccc(F)c5sc(N)c(C#N)c45)c(C#N)cc23)[C@H]1CC (some centres unmarked) [Compound 7] cannot be ordered by pIC50: over 6.30 for the first, over 6.30 for the second.

C=CC(=O)N1CC[C@@H](N(C)c2nc(OC[C@@]34CCCN3C[C@H](F)C4)nc3c(F)c(-c4ccc(F)c5sc(N)c(C#N)c45)c(Cl)cc23)[C@H]1CC [Compound 19] and C=CC(=O)N1CC[C@@H](N(C)c2nc(OC[C@@]34CCCN3C[C@H](F)C4)nc3c(F)c(-c4ccc(F)c5sc(N)c(C#N)c45)ccc23)[C@H]1CC [Compound 4] cannot be ordered by pIC50: over 6.30 for the first, over 6.30 for the second.

C=CC(=O)N1C[C@H](N(C)c2nc(OC[C@@]34CCCN3C[C@H](F)C4)nc3cc(-c4ccc(F)c5sc(N)c(C#N)c45)c(F)cc23)C[C@H]1C [Compound 148] and C=CC(=O)N1C[C@H](N(C)c2nc(OC[C@@]34CCCN3C[C@H](F)C4)nc3c(F)c(-c4ccc(F)c5sc(N)c(C#N)c45)c(C(F)(F)F)cc23)C[C@H]1C (atropisomer, axis not shown) [Compound 176] cannot be ordered by pIC50: over 6.30 for the first, over 6.30 for the second.

C=CC(=O)N1CC[C@@H](N(C)c2nc(OC[C@H]3C[C@@H](OC)CN3C)nc3c(F)c(-c4ccc(F)c5sc(N)c(C#N)c45)c(C(F)(F)F)cc23)[C@H]1C (single isomer, unassigned) [Compound 173] and C=CC(=O)N1CC[C@@H](N(C)c2nc(OC[C@@H]3C[C@@H](F)CN3C)nc3c(F)c(-c4ccc(F)c5sc(N)c(C#N)c45)c(C(F)(F)F)cc23)[C@@H]1C [Compound 32] cannot be ordered by pIC50: over 6.30 for the first, over 6.30 for the second.

C=CC(=O)N1CCC(N(CC)c2nc(OC[C@@]34CCCN3C[C@H](F)C4)nc3c(F)c(-c4ccc(F)c5sc(N)c(C#N)c45)c(C(F)(F)F)cc23)[C@H]1CC (some centres unmarked) [Compound 8] and C=CC(=O)N1CCC(N(CC)c2nc(OC[C@@]34CCCN3C[C@H](F)C4)nc3c(F)c(-c4ccc(F)c5sc(N)c(C#N)c45)ccc23)[C@H]1CC (some centres unmarked) [Compound 11] cannot be ordered by pIC50: over 6.30 for the first, over 6.30 for the second.

C=CC(=O)N1C2CC1CN(c1nc(OC[C@@]34CCCN3C[C@H](F)C4)nc3c(F)c(-c4ccc(F)c5sc(N)c(C#N)c45)c(C(F)(F)F)cc13)C2 [Compound 35] and C=CC(=O)N1C[C@H](N(C)c2nc(OC[C@@H]3CCCN3C)nc3c(F)c(-c4ccc(F)c5sc(N)c(C#N)c45)c(C(F)(F)F)cc23)C[C@H]1C [Compound 147] cannot be ordered by pIC50: over 6.30 for the first, over 6.30 for the second.

Compared with C=CC(=O)N1CC[C@@H](N(C)c2nc(OC[C@@H]3CCCN3C)nc3c(F)c(-c4ccc(F)c5sc(N)c(C#N)c45)c(C(F)(F)F)cc23)[C@H]1C (atropisomer, axis not shown) [Compound 132], C=CC(=O)N1CC[C@@H](N(C)c2nc(OC[C@@H]3CC4(CC4)CN3C)nc3c(F)c(-c4ccc(F)c5sc(N)c(C#N)c45)c(C(F)(F)F)cc23)[C@@H]1C (atropisomer, axis not shown) [Compound 111] is higher in pIC50: 4.70 to 5.30 for the first, over 6.30 for the second. The second is the more potent here.

C=CC(=O)N1CC[C@@H](N(C)c2nc(OC[C@@H]3C[C@@H](F)CN3CC)nc3c(F)c(-c4ccc(F)c5sc(N)c(C#N)c45)c(C(F)(F)F)cc23)[C@H]1C [Compound 107] and C=CC(=O)N1CC[C@@H](N(CC)c2nc(OC[C@@H]3CCCN3C)nc3c(F)c(-c4ccc(F)c5sc(N)c(C#N)c45)ccc23)[C@H]1C [Compound 141] cannot be ordered by pIC50: over 6.30 for the first, over 6.30 for the second.

C=CC(=O)N1CC[C@@H](N(C)c2nc(OC[C@@]34CCCN3C[C@H](F)C4)nc3cc(-c4nc(N)cc(C)c4C(F)(F)F)c(F)cc23)[C@H]1C [Compound 110] and C=CC(=O)N1CC[C@@H](N(C)c2nc(OC[C@@]34CCCN3C[C@H](F)C4)nc3c(F)c(-c4nc(N)cc(C)c4C(F)(F)F)ccc23)[C@H]1C [Compound 115] cannot be ordered by pIC50: over 6.30 for the first, over 6.30 for the second.
